Reference: patent publication US20220380443A1, “TARGETING NAPA-LINKED PEP[…] TREATING LYME DISEASE” (priority 2021, published 2022)

What was measured:
dHL-60 cells = assay: dHL-60 cell (neutrophil) migration in microfluidic competitive chemotaxis-chip (μC3); format: cell-based, Human; conditions: 125 μg/mL PG sample, 10 nM fMLP, 100 nM LTB4, 5 hours; for Percentage of Cells Migrated toward stimulus: mean±SD of three biological replicates
Source text: Fresh, mixed donor human peripheral blood mononuclear cells (PBMCs) (Zen-Bio) were re-suspended in PBMC media (Zen-Bio) overnight prior to stimulations. Human NOD2 reporter cells, which were used to detect PG in OMVs (see below), were purchased from Invi-vogen and cultured as recommended by the manufacturer. Human promyelocytic leukemia cells (HL-60 CCL-240, American Type Culture Collection ATCC, Manassas, Va.) were cul-tured in complete media comprising of Iscove's Modified Dulbecco's Medium (IMDM, ATCC, Manassas, Va.) supplemented with 10% fetal bovine serum (FBS, ATCC, Manassas, Va.) at 37° C. in 5% CO2, according to ATCC instructions. HL-60 cells were differentiated into a neutrophil-like state with 1.5% dimethyl sulfoxide (DMSO, Sigma-Aldrich, St. Louis, Mo.) to 1.5×10^5 cells/mL for five days. Differentiated HL-60 cells (dHL-60 cells) were stained with Hoechst solution [20 mM] for 10 minutes (Thermo Fisher Scientific, Waltham, Mass.) at 37° C. and 5% CO2 and spun down and re-suspended into a concentration of 5.0×10^7 cells/mL immediately before use in the migration assay.
The microfluidic competitive chemotaxis-chip (μC3) was used to perform each migration assay. This device allowed for the creation of a dual gradient through two opposing chemoattractant reservoirs. The central cell-loading chamber is connected to the two reservoirs by perpendicular cell migration ladders (measured 10 μm wide×10 μm tall). Device fabrication was as previously. Briefly, two layers of photoresist (SUB, MicroChem), the first one 10 μm thin (corresponding to the migration channels) and the second one 70 μm thick (corresponding to the neutrophil loading chamber) were patterned on one silicon wafer sequentially using two photolithographic masks and processing cycles according to the instructions from the manufacturer. The wafer with patterned photoresist was used as a mold to produce polydimethylsiloxane (PDMS) (Sylgard 184, Elsworth Adhesives, Wilmington, Mass.) devices, which were then bonded to the base of glass-bottom 6-well plates (MatTek Corp., Ashland, Mass.), using an oxygen plasma machine (Nordson March, Concord, Calif.). Prior to each migration assay, the device was primed with fibronectin (Sigma-Aldrich, St. Louis, Mo.) (11 μg/mL). After priming with fibronectin, each device was covered in 4 mL complete media. […]
Each assay was visualized on a fully automated Nikon TiE microscope using a Plan Fluor 10×Ph1 DLL (NA=0.3) lens with a biochamber heated to 37° C. with 5% CO2. […] Image analysis of cell migration counts was analyzed automatically using ImageJ Cell tracking was conducted using an automated tracker, TrackMate (custom tracking and analysis codes are available for download at https://github.com/boribong/Single-Cell-Migration-Tracking) and ImageJ software (NIH). […]

[1] = test system: B. burgdorferi 5A11 and 5A11/napA; assay: Lysozyme and NaCl stress tests (microtiter growth, colony forming units); format: cell-based, Borrelia burgdorferi; conditions: microtiter plate, end-point after 6 days, FIG. 7A
Procedure: Initial studies geared towards understanding both permissive and restrictive growth conditions upon stress were performed in microplates with serial dilutions. Each strain was cultured to ˜1×10^6 cells/mL and subsequently back diluted to a final concentration of 1×10^4 cells/mL in fresh B SKIT containing cell-wall stress. Lysozyme and NaCl were serially diluted 1:1. The final concentration of Lysozyme ranged from 2 mg/mL to 0 mg/mL, while NaCl varied from 500 nM to 7.8 mM. […] Both microtiter plates contained 4 wells of uninoculated media, which served as a negative control. These 96 well plates were allowed to incubate at 37° C. under 5% CO2 for 6 days. Afterwards, they were placed at ambient conditions for 2 hours before being imaged.
Parental and NapA mutant bacteria were cultured to ˜6.5×10^6 cells/mL and back diluted to a final starting concentration of 10^6 cells/mL. Each culture was stressed with Lysozyme (0.37 mg/mL) or NaCl (0.111 M) for 24 hours without additional antibiotic selection. Afterwards, each culture was plated using standard methods [92] and cultured at 37° C. under 5% CO2.

Row | Compound | dHL-60 Cell Velocity, cells migrating toward stimulus (dHL-60 cells) [μm/min] | Percentage of Cells Migrated toward stimulus (dHL-60 cells) [%] | resistance of wild-type cells to NaCl-induced stress versus 5A11/napA ([1]; NaCl 7.8 to 500 mM) | less enzyme needed to ablate 5A11/napA growth than wild-type bacteria ([1]; Lysozyme 0 to 2 mg/mL)
1 | CCCCC/C=C\C[C@@H](O)/C=C/C=C/C=C\[C@@H](O)CCCC(=O)O [LTB4, Leukotriene B4] | 7.04±4.90 | 25.89±3.52 |  | 
2 | [Cl-].[Na+] [NaCl] |  |  | more than 8 times | 
3 | Formylmethionine-leucyl-phenylalanine [fMLP] | 6.93±4.40 | 35.94±5.42 |  | 
4 | Lysozyme |  |  |  | 5-6 times
